Reference: ChEMBL document CHEMBL5036347, “Design of the naphthyl-diarylpyrimidines as potent non-nucleoside reverse transcriptase inhibitors (NNRTIs) via structure-based extension into the entrance channel” (Eur J Med Chem, 2021)
≈ marks a conversion by molar mass, not a printed value.

Columns and labels:
[1] = system: Human immunodeficiency virus 2; test: Anti-HIV activity against HIV2 ROD infected in human MT4 cells assessed as reduction in virus-induced cytopathic effect incubated for 5 days by MTT assay; format: functional, organism-based; conditions: Human immunodeficiency virus 2, ROD, MT4, 120 h
[2] = Selectivity index, ratio of CC50 for cytotoxicity against human MT4 cells to EC50 of Anti-HIV activity against HIV-1 IIIB infected in human MT4; format: toxicity, cell-based; conditions: read-out: Selectivity Index
[3] = Resistance fold, ratio of EC50 for HIV1 harboring reverse transcriptase F227L/V106A double mutant […] to EC50 for wild type HIV1 […]; format: functional
MT4 = test: (§1) Cytotoxicity against human MT4 cells assessed as reduction in cell viability incubated for 5 days by MTT assay; format: cell-based; conditions: Homo sapiens, MT4, 120 h
[4] = Resistance fold, ratio of EC50 for HIV1 harboring reverse transcriptase K103N mutant […] to EC50 for wild type HIV1 […]; format: functional
[5] = system: Human immunodeficiency virus 1; test: Antiviral activity against HIV1 harboring reverse transcriptase K103N mutant infected in human MT4 cells assessed as protection against virus-induced cytopathic effect incubated for 5 days by MTT assay; format: functional, organism-based; conditions: Human immunodeficiency virus 1, MT4, 120 h
[6] = system: Human immunodeficiency virus 1; test: Antiviral activity against HIV1 harboring reverse transcriptase F227L/V106A mutant infected in human MT4 cells assessed as protection against virus-induced cytopathic effect incubated for 5 days by MTT assay; format: functional, organism-based; conditions: Human immunodeficiency virus 1, MT4, 120 h
[7] = system: Human immunodeficiency virus 1; test: Antiviral activity against HIV1 harboring reverse transcriptase Y188L mutant infected in human MT4 cells assessed as protection against virus-induced cytopathic effect incubated for 5 days by MTT assay; format: functional, organism-based; conditions: Human immunodeficiency virus 1, MT4, 120 h
[8] = Resistance fold, ratio of EC50 for HIV1 harboring reverse transcriptase K103N/Y181C double mutant […] to EC50 for wild type HIV1 […]; format: functional
[9] = system: Human immunodeficiency virus 1; test: Antiviral activity against HIV1 harboring reverse transcriptase Y181C mutant infected in human MT4 cells assessed as protection against virus-induced cytopathic effect incubated for 5 days by MTT assay; format: functional, organism-based; conditions: Human immunodeficiency virus 1, MT4, 120 h
[10] = Resistance fold, ratio of EC50 for HIV1 harboring reverse transcriptase E138K mutant […] to EC50 for wild type HIV1 […]; format: functional
[11] = target: Human immunodeficiency virus type 1 reverse transcriptase (Human immunodeficiency virus 1, UniProt Q72547); test: Inhibition of wild type HIV1 reverse transcriptase using oligo(dT)16 as primer measured after 40 mins by picogreen-dye based spectrofluorimetric analysis
[12] = Resistance fold, ratio of EC50 for HIV1 harboring reverse transcriptase L100I mutant […] to EC50 for wild type HIV1 […]; format: functional
[13] = system: Human immunodeficiency virus 1; test: Anti-HIV activity against HIV-1 IIIB infected in human MT4 cells assessed as reduction in virus-induced cytopathic effect incubated for 5 days by MTT assay; format: functional, organism-based; conditions: Human immunodeficiency virus 1, IIIB, MT4, 120 h
[14] = Resistance fold, ratio of EC50 for HIV1 harboring reverse transcriptase Y188L mutant […] to EC50 for wild type HIV1 […]; format: functional
[15] = system: Human immunodeficiency virus 1; test: Antiviral activity against HIV1 harboring reverse transcriptase L100I mutant infected in human MT4 cells assessed as protection against virus-induced cytopathic effect incubated for 5 days by MTT assay; format: functional, organism-based; conditions: Human immunodeficiency virus 1, MT4, 120 h
[16] = Resistance fold, ratio of EC50 for HIV1 harboring reverse transcriptase Y181C mutant […] to EC50 for wild type HIV1 […]; format: functional
[17] = system: Human immunodeficiency virus 1; test: Antiviral activity against HIV1 harboring reverse transcriptase E138K mutant infected in human MT4 cells assessed as protection against virus-induced cytopathic effect incubated for 5 days by MTT assay; format: functional, organism-based; conditions: Human immunodeficiency virus 1, MT4, 120 h
[18] = system: Human immunodeficiency virus 1; test: Antiviral activity against HIV1 harboring reverse transcriptase K103N/Y181C double mutant infected in human MT4 cells assessed as protection against virus-induced cytopathic effect incubated for 5 days by MTT assay; format: functional, organism-based; conditions: Human immunodeficiency virus 1, MT4, 120 h
[19] = target: Human immunodeficiency virus type 1 reverse transcriptase (Human immunodeficiency virus 1, UniProt Q72547, K103N/Y181C); test: Inhibition of HIV1 reverse transcriptase K103N/Y181C double mutant using oligo(dT)16 as primer measured after 40 mins by picogreen-dye based spectrofluorimetric analysis
[20] = Water solubility of compound at pH 2 at 0.1 to 10 mg by HPLC-UV analysis; format: physicochemical; conditions: dose 0.1-10 mg
[21] = as §1; format: cell-based; conditions: human, MT4 cells; time 5 day
[22] = target: Human immunodeficiency virus type 1 reverse transcriptase (Human immunodeficiency virus 1, UniProt Q72547, Y188L); test: Inhibition of HIV1 reverse transcriptase Y188L mutant using oligo(dT)16 as primer measured after 40 mins by picogreen-dye based spectrofluorimetric analysis
[23] = target: Human immunodeficiency virus type 1 reverse transcriptase (Human immunodeficiency virus 1, UniProt Q72547, F227L/V106A); test: Inhibition of HIV1 reverse transcriptase F227L/V106A double mutant using oligo(dT)16 as primer measured after 40 mins by picogreen-dye based spectrofluorimetric analysis
[24] = target: Human immunodeficiency virus type 1 reverse transcriptase (Human immunodeficiency virus 1, UniProt Q72547, E138K); test: Inhibition of HIV1 reverse transcriptase E138K mutant using oligo(dT)16 as primer measured after 40 mins by picogreen-dye based spectrofluorimetric analysis
[25] = Water solubility of compound at pH 7 at 0.1 to 10 mg by HPLC-UV analysis; format: physicochemical; conditions: dose 0.1-10 mg
[26] = target: Human immunodeficiency virus type 1 reverse transcriptase (Human immunodeficiency virus 1, UniProt Q72547, Y181C); test: Inhibition of HIV1 reverse transcriptase Y181C mutant using oligo(dT)16 as primer measured after 40 mins by picogreen-dye based spectrofluorimetric analysis
[27] = Water solubility of compound at pH 7.4 at 0.1 to 10 mg by HPLC-UV analysis; format: physicochemical; conditions: dose 0.1-10 mg
[28] = target: Human immunodeficiency virus type 1 reverse transcriptase (Human immunodeficiency virus 1, UniProt Q72547, K103N); test: Inhibition of HIV1 reverse transcriptase K103N mutant using oligo(dT)16 as primer measured after 40 mins by picogreen-dye based spectrofluorimetric analysis
[29] = target: Human immunodeficiency virus type 1 reverse transcriptase (Human immunodeficiency virus 1, UniProt Q72547, L100I); test: Inhibition of HIV1 reverse transcriptase L100I mutant using oligo(dT)16 as primer measured after 40 mins by picogreen-dye based spectrofluorimetric analysis

| Compound | EC50 [1] [µM] | selectivity ratio [2] | Ratio EC50 [3] | Ratio EC50 [4] | EC50 [5] [µM] | EC50 [6] [µM] | EC50 [7] [µM] | Ratio EC50 [8] | EC50 [9] [µM] | Ratio EC50 [10] | IC50 [11] [µM] | Ratio EC50 [12] | EC50 [13] [µM] | Ratio EC50 [14] | EC50 [15] [µM] | Ratio EC50 [16] | EC50 [17] [µM] | EC50 [18] [µM] | IC50 [19] [µM] | CC50 at 120 h [21] [µM] | further results |
| --- | --- | --- | --- | --- | --- | --- | --- | --- | --- | --- | --- | --- | --- | --- | --- | --- | --- | --- | --- | --- | --- |
| CCC(C)CNc1cc(Oc2c(OC)cc3cc(C#N)ccc3c2OC)nc(Nc2ccc(C#N)cc2)n1 (configuration not stated) | > 1000 | > 3550 | >14450 | 1 | 0.06 | > 1000 | 6.14 | 216 | 0.68 | 4 | 0.27 | 36 | 0.069 | 89 | 2.48 | 10 | 0.28 | 14.9 | – | – | IC50 (MT4): > 125 µM |
| CCNc1cc(Oc2c(OC)cc3cc(C#N)ccc3c2OC)nc(Nc2ccc(C#N)cc2)n1 | > 1000 | > 30500 | 463 | 1 | 0.0088 | 4.21 | 0.58 | 46 | 0.061 | 2 | 0.06 | 14 | 0.0091 | 64 | 0.13 | 7 | 0.016 | 0.42 | 0.43 | > 125 | solubility [20]: 1 µg/mL (≈ 2.14 µM); IC50 [22]: 2.32 µM; IC50 [23]: 1.16 µM; IC50 [24]: 0.09 µM; solubility [25]: < 1 µg/mL; IC50 [26]: 0.16 µM; solubility [27]: 9 µg/mL (≈ 19.3 µM); IC50 [28]: 0.12 µM; IC50 [29]: 1.31 µM |
| COc1cc2cc(C#N)ccc2c(OC)c1Oc1cc(N)nc(Nc2ccc(C#N)cc2)n1 | 7.28 | 3500 | 61 | 1 | 0.0053 | 0.33 | 0.176 | 6 | 0.016 | 3 | 0.02 | 7 | 0.0054 | 33 | 0.038 | 3 | 0.014 | 0.03 | 0.06 | 19 | solubility [20]: < 1 µg/mL; IC50 [22]: 0.15 µM; IC50 [23]: 0.12 µM; IC50 [24]: 0.02 µM; solubility [25]: < 1 µg/mL; IC50 [26]: 0.04 µM; solubility [27]: 1 µg/mL (≈ 2.28 µM); IC50 [28]: 0.04 µM; IC50 [29]: 0.07 µM |
| COc1cc2cc(C#N)ccc2c(OC)c1Oc1cc(N2CCC(O)C2)nc(Nc2ccc(C#N)cc2)n1 (configuration not stated) | 9.12 | 22800 | 124 | 2 | 0.019 | 1.33 | 0.4 | 76 | 0.048 | 4 | 0.1 | 11 | 0.011 | 38 | 0.12 | 4 | 0.045 | 0.81 | 0.45 | > 125 | solubility [20]: 1 µg/mL (≈ 1.97 µM); IC50 [22]: 1.06 µM; IC50 [23]: 0.88 µM; IC50 [24]: 0.15 µM; solubility [25]: < 1 µg/mL; IC50 [26]: 0.18 µM; solubility [27]: 2 µg/mL (≈ 3.93 µM); IC50 [28]: 0.24 µM; IC50 [29]: 0.49 µM |
| COc1cc2cc(C#N)ccc2c(OC)c1Oc1cc(NCCCCO)nc(Nc2ccc(C#N)cc2)n1 | 4.93 | 2190 | 158 | 1 | 0.02 | 2.81 | 0.74 | 31 | 0.19 | 3 | 0.08 | 17 | 0.018 | 41 | 0.3 | 11 | 0.047 | 0.55 | – | 39.1 | – |
| COc1cc2cc(C#N)ccc2c(OC)c1Oc1cc(NC2CCOC2)nc(Nc2ccc(C#N)cc2)n1 (configuration not stated) | > 1000 | > 19000 | 156 | 1 | 0.028 | 2.01 | 0.56 | 49 | 0.085 | 2 | 0.18 | 19 | 0.013 | 43 | 0.23 | 7 | 0.047 | 0.64 | – | > 125 | – |
| COc1cc2cc(C#N)ccc2c(OC)c1Oc1cc(NCC2CC2)nc(Nc2ccc(C#N)cc2)n1 | 213 | > 10500 | 3026 | 1 | 0.031 | 74.4 | 1.42 | 56 | – | 5 | 0.09 | 39 | 0.025 | 58 | 0.96 | 9 | 0.059 | 1.37 | – | > 125 | IC50 [9]: 0.21 µM |
| CCCC(CCC)Nc1cc(Oc2c(OC)cc3cc(C#N)ccc3c2OC)nc(Nc2ccc(C#N)cc2)n1 | > 1000 | > 330 | >1416 | 1 | 0.36 | > 1000 | > 1000 | >1416 | 26.4 | 2 | 0.61 | 181 | 0.71 | >1416 | 128 | 37 | 1.59 | > 1000 | – | > 125 | – |
